How the values were obtained:
[1] = Induction of estrogen biosynthesis in aromatase overexpressing HEK293A cells assessed as increase in 17beta-estradiol levels preincubated for 24 hrs followed by testosterone addition measured after 24 hrs by magnetic particle-based ELISA; type: functional, cell-based; conditions: Homo sapiens, HEK293-A
[2] = Induction of estrogen biosynthesis in aromatase overexpressing HEK293A cells assessed as increase in 17beta-estradiol levels at 50 uM preincubated for 24 hrs followed by testosterone addition measured after 24 hrs by magnetic particle-based ELISA relative to egonol gentiobioside; type: functional, Homo sapiens, HEK293-A
[3] = Cytotoxicity against aromatase overexpressing HEK293A cells assessed as effect on cell proliferation at 10 to 50 uM; type: toxicity, cell-based; conditions: human, hek293-a

Row | Structure (SMILES) | EC50 [1] | fold change (FC) [2] | Activity [3]
1 | c1ccc(-c2cc3ccccc3o2)cc1 | 15.5 µM | >0.6 | Non-Toxic
2 | COc1cccc2cc(-c3ccccc3)oc12 |  |  | Non-Toxic
3 | COc1ccc(-c2cc3cccc(OC)c3o2)cc1OC |  |  | Non-Toxic
4 | COc1ccc(-c2cc3ccccc3o2)cc1 |  |  | Non-Toxic
5 | COc1ccc(-c2cc3cc(Cl)ccc3o2)cc1 |  |  | Non-Toxic
6 | COc1cc(Cl)cc2cc(-c3ccc(F)cc3)oc12 | 20.1 µM | >0.6 | Non-Toxic
7 | COc1cc(Cl)cc2cc(-c3ccc(Cl)cc3)oc12 |  |  | Non-Toxic
8 | COc1cccc2cc(-c3ccc([N+](=O)[O-])cc3)oc12 |  |  | Non-Toxic
9 | COc1ccc(-c2cc3cc(Br)cc(OC)c3o2)cc1 | 20.9 µM | >0.6 | Non-Toxic
10 | COc1cc(Cl)cc2cc(-c3ccccc3)oc12 |  |  | Non-Toxic
11 | COc1cc(-c2cc3cc(Cl)ccc3o2)cc(OC)c1OC | 29.4 µM | >0.6 | Non-Toxic
12 | COc1ccc(-c2cc3cc(Br)cc(OC)c3o2)cc1OC |  |  | Non-Toxic
13 | O=[N+]([O-])c1ccc(-c2cc3cc(Cl)cc(Cl)c3o2)cc1 |  |  | Non-Toxic
14 | COc1cc(CCCOC(C)=O)c(C=O)c2cc(-c3ccc4c(c3)OCO4)oc12 |  |  | Non-Toxic
15 | COc1cccc2cc(-c3ccc4c(c3)OCO4)oc12 |  | >0.6 | Non-Toxic
16 | Clc1ccc2oc(-c3ccc(OCc4ccccc4)cc3)cc2c1 | 17.2 µM | >0.6 | Non-Toxic
17 | COc1ccc(-c2cc3cc(Cl)ccc3o2)cc1OC |  |  | Non-Toxic
18 | COc1ccccc1-c1cc2cc(Cl)ccc2o1 |  |  | Non-Toxic
19 | COc1cc(SC)cc2cc(-c3ccc(Cl)cc3)oc12 |  |  | Non-Toxic
20 | COc1cc(CCCO)c(Br)c2c(Br)c(-c3ccc4c(c3)OCO4)oc12 |  |  | Non-Toxic
21 | COc1ccc(-c2cc3cc(Br)cc(OC)c3o2)cc1O | 25.5 µM | >0.6 | Non-Toxic
22 | Clc1ccc(-c2cc3cc(Cl)ccc3o2)cc1 |  |  | Non-Toxic
23 | COc1cccc(-c2cc3cc(Br)cc(OC)c3o2)c1 |  | >0.6 | Non-Toxic
24 | Fc1ccc(-c2cc3ccccc3o2)cc1 | 24.9 µM | >0.6 | Non-Toxic
25 | COc1cccc2cc(-c3ccc(Cl)cc3)oc12 | 14.7 µM | >0.6 | Non-Toxic
26 | COc1ccc(-c2cc3cccc(OC)c3o2)cc1 |  |  | Non-Toxic
27 | COc1ccc(-c2cc3ccccc3o2)cc1OC |  |  | Non-Toxic
28 | COc1ccc(OC)c(-c2cc3cc(SC)cc(OC)c3o2)c1 | 19.4 µM | >0.6 | Non-Toxic

Row | Structure (SMILES) | EC50 [1] | fold change (FC) [2] | Activity [3]
29 | COc1ccc(-c2cc3cc(Cl)cc(Cl)c3o2)cc1OC |  |  | Non-Toxic
30 | COc1cccc(-c2cc3ccccc3o2)c1 | 20.8 µM | >0.6 | Non-Toxic
31 | Clc1cc(Cl)c2oc(-c3ccccc3)cc2c1 |  |  | Non-Toxic
32 | COc1cccc(-c2cc3cc(Cl)cc(Cl)c3o2)c1 | 19.6 µM | >0.6 | Non-Toxic
33 | COc1cc(CCCO)c(Br)c2cc(-c3ccc4c(c3)OCO4)oc12 | 22.1 µM | >0.6 | Non-Toxic
34 | O=[N+]([O-])c1ccc(-c2cc3cc(Cl)ccc3o2)cc1 |  |  | Non-Toxic
35 | COc1cc(-c2cc3cc(Br)cc(OC)c3o2)ccc1O |  |  | Non-Toxic
36 | COc1ccccc1-c1cc2cc(Cl)cc(Cl)c2o1 |  |  | Non-Toxic
37 | COc1cccc(-c2cc3cccc(OC)c3o2)c1 |  |  | Non-Toxic
38 | COc1cc(SC)cc2cc(-c3ccc(F)cc3)oc12 |  |  | Non-Toxic
39 | COc1cc(Br)cc2cc(-c3ccc([N+](=O)[O-])cc3)oc12 | 30.9 µM | >0.6 | Non-Toxic
40 | COc1cc(CCCOC(C)=O)cc2c(C=O)c(-c3ccc4c(c3)OCO4)oc12 |  |  | Non-Toxic
41 | COc1cc(Br)cc2cc(-c3ccc4c(c3)OCO4)oc12 |  |  | Non-Toxic
42 | COc1c(Br)c(CCCO)c(Br)c2c(Br)c(-c3ccc4c(c3)OCO4)oc12 |  |  | Non-Toxic
43 | COc1ccc(-c2cc3cc(Cl)cc(Cl)c3o2)cc1 |  |  | Non-Toxic
44 | c1ccc2oc(-c3ccc4c(c3)OCO4)cc2c1 |  |  | Non-Toxic
45 | COc1cc(CCCO[C@@H]2O[C@H](CO[C@@H]3O[C@H](CO)[C@@H](O)[C@H](O)[C@H]3O)[C@@H](O)[C@H](O)[C@H]2O)cc2cc(-c3ccc4c(c3)OCO4)oc12 | 15.7 µM |  | 
46 | COc1cccc2cc(-c3ccc(F)cc3)oc12 |  |  | Non-Toxic
47 | C=CC(=O)OCCCc1cc(OC)c2oc(-c3ccc4c(c3)OCO4)cc2c1 |  |  | Non-Toxic
48 | COc1cc(CCCI)cc2cc(-c3ccc4c(c3)OCO4)oc12 |  |  | Non-Toxic
49 | COc1cc(CCC=O)cc2cc(-c3ccc4c(c3)OCO4)oc12 |  |  | Non-Toxic
50 | COc1cc(CCCBr)cc2cc(-c3ccc4c(c3)OCO4)oc12 |  |  | Non-Toxic
51 | COc1cc(CCCOC(=O)c2ccccc2)cc2cc(-c3ccc4c(c3)OCO4)oc12 |  | >0.6 | Non-Toxic
52 | COc1cc(CCCCl)cc2cc(-c3ccc4c(c3)OCO4)oc12 |  | >0.6 | Non-Toxic
53 | COc1cc(CCCOC(C)=O)cc2cc(-c3ccc4c(c3)OCO4)oc12 [EGONOL ACETATE] |  |  | Non-Toxic
54 | CCCC(=O)OCCCc1cc(OC)c2oc(-c3ccc4c(c3)OCO4)cc2c1 [EGONOLBUTANOATE] |  |  | Non-Toxic
55 | COc1cc(CCCO)cc2cc(-c3ccc4c(c3)OCO4)oc12 [EGONOL] |  |  | Non-Toxic

From ChEMBL document CHEMBL3862024, “2-Phenylbenzo[b]furans: Synthesis and promoting activity on estrogen biosynthesis” (Bioorg Med Chem Lett, 2016)
